The text below walks through data of patent publication US20100330172A1, “CONTROLLED-RELEASE PHARMACEUTICAL FORMULATION” (ALPHAPHARM PTY LTD, priority 2007, published 2010).

In one data set the test system is dopamine uptake. The note with it: in vitro studies; cited from earlier work.
The test system of a further data set is norepinephrine uptake. The conditions noted are these: in vitro studies; cited from earlier work.
For data set [1] the following is noted: cited from earlier work.
A short description of data set [2]: Desvenlafaxine particle size (MMD). It counts as physicochemical. The note with it: particle size of desvenlafaxine salt grade. The text has this:
The “mass mean diameter” or “MMD” refers to the median particle diameter based on mass (i.e. the particle diameter where one half of the mass of particles is contributed by particles with a lesser diameter and one half of the mass of particles is contributed by particles with a greater diameter) and can be measured using various commonly available methods such as measurement using light (eg. light-scattering methods or turbidimetric methods), sedimentation methods (eg. pipette analysis using an Andreassen pipette, sedimentation scales, photo-sedimentometers or sedimentation in a centrifugal force), pulse methods (eg. Coulter counter), or sorting by means of gravitational or centrifugal force.
The particle size of desvenlafaxine utilised in the following formulations are set out in Table 1.

A short description of data set [3]: in vitro dissolution, USP II apparatus (paddles), 50 rpm, pH 6.8 phosphate buffer. The note with it: FIG. 1; similar time points; matrix tablets with Eudragit NE40D. It counts as physicochemical. On the procedure:
FIG. 1 is the in vitro dissolution profiles of embodied formulations of the present invention when measured using a USP II apparatus at 50 rpm in pH 6.8 phosphate buffer.
The resulting in vitro dissolution profiles of these batches as tested using a USP II apparatus (paddles) at 50 rpm in pH 6.8 phosphate buffer are set out in Table 3.

As to `CN(C)CC(c1ccc(O)cc1)C1(O)CCCCC1` (racemic) [desvenlafaxine, (+/−)-4-[2-(dimethylamino)-1-(1-hydroxycyclohexyl)ethyl]phenol], the “inhibition of dopamine uptake compared with racemic venlafaxine” value with dopamine uptake is on record as “more potent inhibitor”. In the data set with norepinephrine uptake, the “inhibition of norepinephrine uptake compared with racemic venlafaxine” value is “more potent inhibitor”. For the same molecule, the half-life result in data set [1] (in vivo) is “about 10 hours”. Also, the “half-life relative to venlafaxine” value in data set [1] (times longer than the half-life of venlafaxine) was “approximately 2.5 times”.

As to `CN(C)CC(c1ccc(O)cc1)C1(O)CCCCC1.O=C(O)/C=C/C(=O)O` (stereo not shown) [Coarse fumarate], the “MMD (mass mean diameter)” value in data set [2] was determined as 184 μm.

As for `CN(C)CC(c1ccc(O)cc1)C1(O)CCCCC1.O=C(O)CCC(=O)O` (stereo not shown) [Coarse succinate], the “MMD (mass mean diameter)” value in data set [2] is 186 μm.

As for `CN(C)CC(c1ccc(O)cc1)C1(O)CCCCC1.O=C(O)/C=C/C(=O)O` (stereo not shown) [Fine fumarate], the “change in amount of desvenlafaxine dissolved, coarse to fine” value in data set [3] is “approximately similar increase in the amount of desvenlafaxine dissolved”. Moreover, in data set [2], the “MMD (mass mean diameter)” value is recorded as 21 μm.

In the case of `CN(C)CC(c1ccc(O)cc1)C1(O)CCCCC1.O=C(O)CCC(=O)O` (stereo not shown) [Fine succinate], the “change in amount of desvenlafaxine dissolved, coarse to fine” value in data set [3] is “marked increase in the amount of desvenlafaxine dissolved”. The “MMD (mass mean diameter)” value in data set [2] was determined as 37 μm.
